Data on two compounds can be found in PubChem BioAssay AID1053154 (Broad Institute, 2014).

This test has as its system HepG2, simvastatin, LDLR mRNA qPCR, 6 h. The test is described as follows: LDLR mRNA change in statin-treated cells, late-stage follow-up, mechanism study for Trib1 inducer project, cell-based, HepG2, RT-PCR, simvastatin, cherry-pick (AID 1053154). The note with it: active compounds read high.

For the compound `CN1C(=O)c2cc(NC(=O)c3ccc(C(F)(F)F)cc3)ccc2OC[C@@H]2O[C@@H](CC(=O)NC3Cc4ccccc4C3)CC[C@@H]21`, the fold change was 10.

As to `CN1C(=O)c2cc(NC(=O)c3ccc(C(F)(F)F)cc3)ccc2OC[C@@H]2O[C@H](CC(=O)NC3Cc4ccccc4C3)CC[C@@H]21`, the fold change was 2.
